Assay results taken from patent publication US9133183B2, “Imidazolidinones and analogs exhibiting anti-cancer and anti-proliferative activities” (Deciphera Pharmaceuticals, LLC, priority 2013, dated 2015).
Where two headings read alike, the source gives them in different places.

Legend:
[1] = molecular target: unphosphorylated c-FMS kinase (uFMS, Seq. ID no. 1) (Homo sapiens (Human), UniProt P07333); test: uFMS kinase assay (ADP production coupled to pyruvate kinase/lactate dehydrogenase); format: biochemical
Outline: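 Unphosphorylated FMS (10 nM) with polyE4Y 1 mg/mL and 500 μM ATP in 90 mM Tris pH 7.5, 10 mM MgCl2, 0.2% octyl-glucoside, 1% DMSO. ADP formation was coupled via pyruvate kinase/LDH to NADH oxidation, followed at A340 for 4 h at 30° C.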

[2] = molecular target: unphosphorylated c-KIT kinase (uKIT, Seq. ID no. 2) (Homo sapiens (Human), UniProt P10721); test: uKit kinase assay (coupled pyruvate kinase/lactate dehydrogenase); format: biochemical; conditions: enzymatic assay, ATP 2000 μM
Outline: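 Unphosphorylated KIT (12 nM, N-terminal GST fusion) was run with 1 mg/mL polyE4Y, 2000 μM ATP and 10 mM MgCl2 in Tris buffer (pH 7.5, 0.2% octyl-glucoside, 1% DMSO). ADP was coupled via PK/LDH, with NADH loss tracked at A340 for 4 h at 30 °C. Rates at 3–4 h gave % inhibition and IC50.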

[3] = test system: M-NFS-60 cells; test: M-NFS-60 cell proliferation assay (resazurin); format: cell-based; conditions: 67 h incubation
Outline: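 Cells kept in medium containing 20 ng/mL mouse recombinant M-CSF. Fluorescence was read at ex 540/em 600 nm, and IC50 was fitted from percent inhibition across a range of inhibitor concentrations.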

[4] = test system: osteoclast precursors; test: Osteoclast tartrate-resistant acid phosphatase assay; format: cell-based; conditions: Osteoclast, 7-14 days, RANKL and M-CSF
[5] = molecular target: c-FMS kinase in THP-1 cells (Homo sapiens (Human), UniProt P07333); test: Phospho-FMS ELISA assay in THP-1 cells; format: cell-based
[6] = enzymatic assay, ATP 500 μM, read-out: uFMS
[7] = 4 h compound, M-CSF stimulation 5 min, read-out: pFMS inhibition in THP-1 cells

Chain of unphosphorylated c-KIT kinase (uKIT, Seq. ID no. 2) (P10721 other isoform, or with tags, fused parts or gaps): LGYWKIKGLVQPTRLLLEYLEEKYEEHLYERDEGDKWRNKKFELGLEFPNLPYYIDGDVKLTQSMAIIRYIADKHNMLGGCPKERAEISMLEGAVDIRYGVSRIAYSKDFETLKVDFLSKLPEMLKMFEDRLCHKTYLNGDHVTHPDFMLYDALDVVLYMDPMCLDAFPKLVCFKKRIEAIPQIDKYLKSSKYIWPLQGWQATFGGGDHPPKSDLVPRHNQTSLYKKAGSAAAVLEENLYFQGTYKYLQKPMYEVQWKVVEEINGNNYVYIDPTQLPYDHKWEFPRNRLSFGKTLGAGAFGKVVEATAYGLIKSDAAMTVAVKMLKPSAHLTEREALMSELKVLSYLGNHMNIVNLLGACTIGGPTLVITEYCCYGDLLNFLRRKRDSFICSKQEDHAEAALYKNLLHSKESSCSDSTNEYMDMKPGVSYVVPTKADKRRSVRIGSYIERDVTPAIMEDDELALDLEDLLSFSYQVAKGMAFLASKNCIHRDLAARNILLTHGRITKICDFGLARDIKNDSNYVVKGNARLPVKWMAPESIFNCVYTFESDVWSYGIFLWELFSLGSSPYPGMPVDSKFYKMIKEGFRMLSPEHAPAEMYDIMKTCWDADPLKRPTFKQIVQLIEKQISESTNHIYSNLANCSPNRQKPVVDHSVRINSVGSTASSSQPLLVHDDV
Chain of c-FMS kinase in THP-1 cells (P07333 20-972): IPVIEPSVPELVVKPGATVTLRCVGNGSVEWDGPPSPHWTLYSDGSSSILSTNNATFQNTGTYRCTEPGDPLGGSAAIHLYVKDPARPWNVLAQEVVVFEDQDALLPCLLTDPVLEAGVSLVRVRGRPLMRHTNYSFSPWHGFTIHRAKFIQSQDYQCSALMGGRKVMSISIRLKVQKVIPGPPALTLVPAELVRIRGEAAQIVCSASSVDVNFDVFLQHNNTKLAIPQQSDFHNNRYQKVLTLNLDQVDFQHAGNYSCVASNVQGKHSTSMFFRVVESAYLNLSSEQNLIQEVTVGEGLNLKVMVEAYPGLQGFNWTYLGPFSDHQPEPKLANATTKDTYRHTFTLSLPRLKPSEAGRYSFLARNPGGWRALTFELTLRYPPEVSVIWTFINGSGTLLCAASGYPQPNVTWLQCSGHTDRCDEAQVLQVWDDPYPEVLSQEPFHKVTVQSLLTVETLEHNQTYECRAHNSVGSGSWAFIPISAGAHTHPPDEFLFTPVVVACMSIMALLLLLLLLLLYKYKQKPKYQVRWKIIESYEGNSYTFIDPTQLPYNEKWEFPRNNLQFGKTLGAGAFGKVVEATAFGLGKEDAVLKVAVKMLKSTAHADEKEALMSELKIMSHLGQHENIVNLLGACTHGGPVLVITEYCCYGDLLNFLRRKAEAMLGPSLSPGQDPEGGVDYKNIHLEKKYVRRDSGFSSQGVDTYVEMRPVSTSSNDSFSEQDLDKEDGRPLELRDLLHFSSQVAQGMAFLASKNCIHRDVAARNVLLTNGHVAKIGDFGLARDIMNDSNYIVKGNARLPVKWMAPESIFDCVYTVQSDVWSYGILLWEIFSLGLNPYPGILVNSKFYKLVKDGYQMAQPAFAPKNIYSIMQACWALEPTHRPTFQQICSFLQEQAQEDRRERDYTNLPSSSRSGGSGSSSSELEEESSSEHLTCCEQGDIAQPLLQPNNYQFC
Chain of unphosphorylated c-FMS kinase (uFMS, Seq. ID no. 1) (P07333 538-972): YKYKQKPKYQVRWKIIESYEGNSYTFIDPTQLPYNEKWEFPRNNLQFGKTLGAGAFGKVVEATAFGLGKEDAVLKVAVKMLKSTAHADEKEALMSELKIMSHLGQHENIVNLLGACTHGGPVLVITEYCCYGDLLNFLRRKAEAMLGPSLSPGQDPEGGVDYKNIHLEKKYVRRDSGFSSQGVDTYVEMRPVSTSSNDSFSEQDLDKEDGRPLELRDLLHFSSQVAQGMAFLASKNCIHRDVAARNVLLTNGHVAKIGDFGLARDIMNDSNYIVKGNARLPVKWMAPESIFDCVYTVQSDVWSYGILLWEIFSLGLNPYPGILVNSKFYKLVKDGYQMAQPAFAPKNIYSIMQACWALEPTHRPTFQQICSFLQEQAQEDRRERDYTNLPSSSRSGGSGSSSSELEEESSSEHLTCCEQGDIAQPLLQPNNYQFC

Compound	IC50 [1, 6] [nM]	IC50 [2] [nM]	IC50 [3] [nM]	IC50 [4] [nM]	IC50 [5, 7] [nM]	IC50 ([1]; uFMS, enzymatic assay, ATP 500 μM) [nM]	IC50 [5] [nM]	IC50 ([1]; Table 4, read-out: c-FMS IC50) [nM]
CC(C)N1CCN(C(=O)Nc2ccc(Oc3ccnc(-c4cnn(C)c4)c3)cn2)C1=O [Example 36, 3-isopropyl-N-(5-((2-(1-methyl-1H-pyrazol-4-yl)pyridin-4-yl)oxy)pyridin-2-yl)-2-oxoimidazolidine-1-carboxamide]	< 10	10 to 100	< 10	< 10	< 10	–	–	–
[2H]C([2H])([2H])n1cc(-c2cc(Oc3ccc(NC(=O)N4CCN(CCOC)C4=O)nc3C)ccn2)cn1 [Example 39, 3-(2-methoxyethyl)-N-(6-methyl-5-((2-(1-(trideuteromethyl)-1H-pyrazol-4-yl)pyridin-4-yl)oxy)pyridin-2-yl)-2-oxoimidazolidine-1-carboxamide]	10 to 100	100 to 1000	100 to 1000	10 to 100	10 to 100	–	–	–
Cc1nc(NC(=O)N2CCN(C)C2=O)ccc1Oc1ccnc(-c2cnn(C)c2)c1 [Example 41, 3-methyl-N-(6-methyl-5-((2-(1-methyl-1H-pyrazol-4-yl)pyridin-4-yl)oxy)pyridin-2-yl)-2-oxoimidazolidine-1-carboxamide]	–	> 1000	100 to 1000	10 to 100	–	10 to 100	10 to 100	–
CCN1CCN(C(=O)Nc2ccc(Oc3ccnc(-c4cnn(C)c4)c3)c(C)n2)C1=O [Example 42, 3-ethyl-N-(6-methyl-5-((2-(1-methyl-1H-pyrazol-4-yl)pyridin-4-yl)oxy)pyridin-2-yl)-2-oxoimidazolidine-1-carboxamide]	< 10	100 to 1000	10 to 100	< 10	10 to 100	–	–	8
Cc1nc(NC(=O)N2CCN(CC(F)(F)F)C2=O)ccc1Oc1ccnc(-c2cnn(C)c2)c1 [Example 43, N-(6-methyl-5-((2-(1-methyl-1H-pyrazol-4-yl)pyridin-4-yl)oxy)pyridin-2-yl)-2-oxo-3-(2,2,2-trifluoroethyl)imidazolidine-1-carboxamide]	< 10	100 to 1000	< 10	< 10	10 to 100	–	–	–
CCc1nc(NC(=O)N2CCN(C3CCOCC3)C2=O)ccc1Oc1ccnc(-c2cnn(C)c2)c1 [Example 49, N-(6-ethyl-5-((2-(1-methyl-1H-pyrazol-4-yl)pyridin-4-yl)oxy)pyridin-2-yl)-2-oxo-3-(tetrahydro-2H-pyran-4-yl)imidazolidine-1-carboxamide]	10 to 100	> 1000	100 to 1000	10 to 100	100 to 1000	–	–	–
Cc1ccc(-c2cc(Oc3ccc(NC(=O)N4CCN(C5CCOCC5)C4=O)nc3)ccn2)cn1 [Example 52, N-(5-((6′-methyl-[2,3′-bipyridin]-4-yl)oxy)pyridin-2-yl)-2-oxo-3-(tetrahydro-2H-pyran-4-yl)imidazolidine-1-carboxamide]	10 to 100	10 to 100	10 to 100	10 to 100	100 to 1000	–	–	–
Cc1ccc(-c2cc(Oc3ccc(NC(=O)N4CCN(C5CCOCC5)C4=O)nc3C)ccn2)cn1 [Example 54, N-(6-methyl-5-((6′-methyl-[2,3′-bipyridin]-4-yl)oxy)pyridin-2-yl)-2-oxo-3-(tetrahydro-2H-pyran-4-yl)imidazolidine-1-carboxamide]	10 to 100	100 to 1000	10 to 100	10 to 100	100 to 1000	–	–	–
CCc1nc(NC(=O)N2CCN(CC(F)(F)F)C2=O)ccc1Oc1ccnc(-c2cnn(C)c2)c1 [Example 56, N-(6-ethyl-5-((2-(1-methyl-1H-pyrazol-4-yl)pyridin-4-yl)oxy)pyridin-2-yl)-2-oxo-3-(2,2,2-trifluoroethyl)imidazolidine-1-carboxamide]	10 to 100	> 1000	10 to 100	100 to 1000	100 to 1000	–	–	–
CCc1nc(NC(=O)N2CCN(C3CCCC3)C2=O)ccc1Oc1ccnc(-c2cnn(C)c2)c1 [Example 57, 3-cyclopentyl-N-(6-ethyl-5-((2-(1-methyl-1H-pyrazol-4-yl)pyridin-4-yl)oxy)pyridin-2-yl)-2-oxoimidazolidine-1-carboxamide]	< 10	> 1000	< 10	10 to 100	10 to 100	–	–	–
CCc1nc(NC(=O)N2CCN(C3CC3)C2=O)ccc1Oc1ccnc(-c2cnn(C)c2)c1 [Example 58, 3-cyclopropyl-N-(6-ethyl-5-((2-(1-methyl-1H-pyrazol-4-yl)pyridin-4-yl)oxy)pyridin-2-yl)-2-oxoimidazolidine-1-carboxamide]	10 to 100	> 1000	10 to 100	10 to 100	10 to 100	–	–	–
CCN1CCN(C(=O)Nc2ccc(Oc3ccnc(-c4ccc(C5CCN(C)CC5)cc4)c3)c(C)n2)C1=O [Example 61, 3-ethyl-N-(6-methyl-5-((2-(4-(1-methylpiperidin-4-yl)phenyl)pyridin-4-yl)oxy)pyridin-2-yl)-2-oxoimidazolidine-1-carboxamide]	< 10	100 to 1000	< 10	< 10	< 10	–	–	–
Cc1cc(NC(=O)N2CCN(C)C2=O)ncc1Oc1ccnc(-c2cnn(C)c2)c1 [Example 85, 3-methyl-N-(4-methyl-5-((2-(1-methyl-1H-pyrazol-4-yl)pyridin-4-yl)oxy)pyridin-2-yl)-2-oxoimidazolidine-1-carboxamide]	< 10	10 to 100	10 to 100	< 10	10 to 100	–	–	–
CCN1CCN(C(=O)Nc2cc(C)c(Oc3ccnc(-n4cnc(C)c4)c3)cn2)C1=O [Example 88, 3-ethyl-N-(4-methyl-5-((2-(4-methyl-1H-imidazol-1-yl)pyridin-4-yl)oxy)pyridin-2-yl)-2-oxoimidazolidine-1-carboxamide]	10 to 100	100 to 1000	10 to 100	10 to 100	10 to 100	–	–	–
CCN1CCN(C(=O)Nc2ccc(Oc3ccnc(-c4cnc(C)o4)c3)cn2)C1=O [Example 117, 3-ethyl-N-(5-((2-(2-methyloxazol-5-yl)pyridin-4-yl)oxy)pyridin-2-yl)-2-oxoimidazolidine-1-carboxamide]	100 to 1000	100 to 1000	100 to 1000	10 to 100	10 to 100	–	–	–
CCN1CCN(C(=O)Nc2ccc(Oc3ccnc(-c4ccnc(C)c4)c3)c(C)n2)C1=O [Example 118, 3-ethyl-N-(6-methyl-5-((2′-methyl-[2,4′-bipyridin]-4-yl)oxy)pyridin-2-yl)-2-oxoimidazolidine-1-carboxamide]	10 to 100	> 1000	10 to 100	10 to 100	10 to 100	–	–	–
CC(=O)Nc1cc(Oc2ccc(NC(=O)N3CCN(C4CCOCC4)C3=O)nc2)ccn1 [Example 119, N-(5-((2-acetamidopyridin-4-yl)oxy)pyridin-2-yl)-2-oxo-3-(tetrahydro-2H-pyran-4-yl)imidazolidine-1-carboxamide]	10 to 100	100 to 1000	10 to 100	10 to 100	10 to 100	–	–	–
CN(C)C(=O)Nc1cc(Oc2ccc(NC(=O)N3CCN(C4CCOCC4)C3=O)nc2)ccn1 [Example 120, N-(5-((2-(3,3-dimethylureido)pyridin-4-yl)oxy)pyridin-2-yl)-2-oxo-3-(tetrahydro-2H-pyran-4-yl)imidazolidine-1-carboxamide]	< 10	10 to 100	10 to 100	< 10	10 to 100	–	–	–
